The subject of the test is Human tumor cells Hmy-2 (HLA-DR class II positive B cell line). The experiment in a line: Recognition, internalization, labeling and drug release. The format is cell-based. Particulars: drug transported into the cell by cyclodextrin on the BH1/fluorophore/penetrating peptide gold nanoparticles, 1:1:1:1 molar ratio. From the text:
The antibody described above, BH1 functionalized with the PNA-B sequence, has been conjugated to 13 nm gold nanoparticles previously functionalized with the PNA-A sequence by means of the complementary strand hybridization technique. […] On the other hand and due to the possibility of producing a multifunctionalization by using the presented technology, molecules of a cell-penetrating peptide with the DNA-B sequence could further be bound to the nanostructures by hybridization, as occurred with BH1 to the nanoparticles. Furthermore and continuing with the possibility of producing multifunctionalization by using the presented technology, fluorescent labeling molecules functionalized with the DNA-B sequence could be bound to the previous nanostructures by hybridization, as occurred with the BH1 to the nanoparticles. […] To conclude and continuing with multifunctionalization allowed by the presented technology, molecules of cyclodextrin functionalized with the DNA-B sequence could be bound to the previous nanostructures by hybridization as occurred with BH1, fluorophore and penetrating peptide to the nanoparticles, using a 1:1:1:1 molar ratio, respectively.

Turning to `CC1(C)CCC2=C(O1)c1ccccc1C(=O)C2=O` [β-Lapachone], the cell death result was “selectively induced cell death”.

For the origin of these results see patent US20140275509A1, “MULTIFUNCTIONALIZED MATERIALS” (Nanoimmunotech SRL, priority 2011, published 2014).
